{
  "source": "patent US20140212487A1",
  "about": "“SOLID DISPERSION FORMULATION OF AN ANTIVIRAL COMPOUND” (priority 2013, published 2014)",
  "key": {"[1]": {"test": "Pharmacokinetics after oral administration of tablets in beagle dogs", "type": "in vivo", "design": "AUC0-24, mean (RSD) / F / AUC(0-t): dose or concentration left out as unconfirmed", "conditions": "pentagastrin pretreatment", "method": "A series of in vivo experiments were conducted to evaluate the potential benefit of the solid dispersion approach relative to conventional formulations, as well as to optimize the solid dispersion by identifying the most beneficial polymer type and relative polymer concentration within the dispersion.\nPentagastrin is a synthetic polypeptide that stimulates the secretion of gastric acid, pepsin, and intrinsic factor. […]"}, "[2]": {"conditions": "conventional formulation; for Clast, mean: 30 mg single dose"}, "[3]": {"test": "clinical", "conditions": "in vivo, 30 mg; for half-life: t1/2, conventional formulation, median; for AUC(0-inf): AUCinf; for AUC(0-inf) / AUC(0-t) / Cmax / Vd/F: conventional formulation; for AUC(0-t): AUClast; for Vd/F: Vz/F"}, "[4]": {"test": "Solubility of ledipasvir in spray dry feed solvents", "type": "physicochemical", "conditions": "organic solvent or mixture", "method": "The feed solution was initially evaluated for appropriate solvent with regard to solubility, stability, and viscosity. […] Ethanolic and DCM-based feed stocks were assessed for preparation ease and spray dried at a range of inlet and outlet temperatures to assess the robustness of the spray dry process. Both solvents gave rapid dissolution of ledipasvir and copovidone."}, "[5]": {"test_system": "HCV", "test": "Antiviral response for dose selection of ledipasvir in HCV infected subjects", "type": "in vivo, Hepatitis C virus", "method": "The maximum median HCV RNA log 10 reduction was 3 or greater for all cohorts dosed with >3 mg of ledipasvir. […] Therefore, 30 mg and 90 mg of ledipasvir were selected as the dose for the formulations described herein."}, "[6]": {"test_system": "HCV", "test": "Breakthrough (BT) rate of ledipasvir in combination with other therapeutic agents", "type": "in vivo, Hepatitis C virus", "method": "Therefore, the 90 mg dose of ledipasvir may confer a greater antiviral coverage that prevents viral breakthrough."}, "[7]": {"test": "Chemical stability in the ethanolic feed solution"}, "[8]": {"test": "Aqueous solubility screening of ledipasvir in the presence of polymers", "type": "physicochemical", "method": "Solubility screening experiments were performed for ledipasvir in the presence of a variety of polymers, including hydroxypropyl cellulose, hypromellose, povidone and copovidone. […] Hypromellose, povidone, and copovidone increased the solubility of ledipasvir. […] Thus, in one embodiment, the polymer is selected from hypromellose, povidone, and copovidone."}, "[9]": {"conditions": "30 mg, high-fat meal versus fasted"}, "[10]": {"conditions": "po, Geometric Least Squares Mean (GLSM), fasted"}, "[11]": {"conditions": "po, Geometric Least Squares Mean (GLSM), fed"}, "[12]": {"conditions": "po, mean, 30 mg single dose, fasted"}, "[13]": {"conditions": "po, mean, 30 mg single dose, fed (high-fat meal)"}},
  "note": "Like-named read-outs stand apart in the source and are kept apart here.",
  "data": [
    {"compound": "COC(=O)N[C@H](C(=O)N1CC2(CC2)C[C@H]1c1ncc(-c2ccc3c(c2)C(F)(F)c2cc(-c4ccc5nc([C@@H]6[C@H]7CC[C@H](C7)N6C(=O)[C@@H](NC(=O)OC)C(C)C)[nH]c5c4)ccc2-3)[nH]1)C(C)C", "note": "[Amorphous Free base]", "values": [
      {"measurement": "AUC(0-t)", "setting": "[1]; dog, in vivo, read-out: AUC0-24, mean (RSD)", "value": 8.03, "unit": "µM·h"},
      {"measurement": "Cmax", "setting": "[1]; dog, in vivo, read-out: Cmax, mean (RSD)", "value": 743, "unit": "nM"},
      {"measurement": "F", "setting": "[1]", "value": 71, "unit": "%"}
    ]},
    {"compound": "COC(=O)N[C@H](C(=O)N1CC2(CC2)C[C@H]1c1ncc(-c2ccc3c(c2)C(F)(F)c2cc(-c4ccc5nc([C@@H]6[C@H]7CC[C@H](C7)N6C(=O)[C@@H](NC(=O)OC)C(C)C)[nH]c5c4)ccc2-3)[nH]1)C(C)C.O=C(O)C(O)C(O)C(=O)O", "note": "[Crystalline D-tartrate]", "values": [
      {"measurement": "AUC0-24, mean (RSD)", "setting": "[1]", "value": "7623 (44) nM * hr"},
      {"measurement": "F", "setting": "[1]", "value": 67, "unit": "%"}
    ]},
    {"compound": "COC(=O)N[C@H](C(=O)N1CC2(CC2)C[C@H]1c1ncc(-c2ccc3c(c2)C(F)(F)c2cc(-c4ccc5nc([C@@H]6[C@H]7CC[C@H](C7)N6C(=O)[C@@H](NC(=O)OC)C(C)C)[nH]c5c4)ccc2-3)[nH]1)C(C)C", "note": "[Ledipasvir, (1-{3-[6-(9,9-difluoro-7-{2-[5-(2-methoxycarbonylamino-3-methyl-butyryl)-5-aza-spiro[2.4]hept-6-yl]-3H-imidazol-4-yl}-9H-fluoren-2-yl)-1H-benzoimidazol-2-yl]-2-aza-bicyclo[2.2.1]heptane-2-carbonyl}-2-methyl-propyl)-carbamic acid methyl ester]", "values": [
      {"measurement": "Clast, mean", "setting": "[2]; fasted", "value": 6.8, "unit": "ng/mL"},
      {"measurement": "Clast, mean", "setting": "[2]; fed (high-fat meal)", "value": 3.1, "unit": "ng/mL"},
      {"measurement": "decrease in mean AUCinf", "setting": "[2]; [9]", "value": "approximately 45%"},
      {"measurement": "decrease in mean AUClast", "setting": "[2]; [9]", "value": "approximately 45%"},
      {"measurement": "decrease in mean Cmax", "setting": "[2]; [9]", "value": "approximately 45%"},
      {"measurement": "half-life", "setting": "[3]; 30 mg single dose, fasted", "value": 39.8, "unit": "h"},
      {"measurement": "half-life", "setting": "[3]; 30 mg single dose, fed (high-fat meal)", "value": 36.8, "unit": "h"},
      {"measurement": "Tmax", "setting": "[3]; po", "value": 6, "unit": "h"},
      {"measurement": "AUC(0-inf)", "setting": "[3]; [10]", "value": 2060, "unit": "ng·h/mL"},
      {"measurement": "AUC(0-inf)", "setting": "[3]; [11]", "value": 1140, "unit": "ng·h/mL"},
      {"measurement": "AUC(0-inf)", "setting": "[3]; [12]", "value": 2420, "unit": "ng·h/mL"},
      {"measurement": "AUC(0-inf)", "setting": "[3]; [13]", "value": 1180, "unit": "ng·h/mL"},
      {"measurement": "AUC(0-t)", "setting": "[3]; [10]", "value": 1720, "unit": "ng·h/mL"},
      {"measurement": "AUC(0-t)", "setting": "[3]; [11]", "value": 978, "unit": "ng·h/mL"},
      {"measurement": "AUC(0-t)", "setting": "[3]; [12]", "value": 1990, "unit": "ng·h/mL"},
      {"measurement": "AUC(0-t)", "setting": "[3]; [13]", "value": 996, "unit": "ng·h/mL"},
      {"measurement": "Cmax", "setting": "[3]; [10]", "value": 65.3, "unit": "ng/mL"},
      {"measurement": "Cmax", "setting": "[3]; [11]", "value": 35.9, "unit": "ng/mL"},
      {"measurement": "Cmax", "setting": "[3]; [12]", "value": 73.1, "unit": "ng/mL"},
      {"measurement": "Cmax", "setting": "[3]; [13]", "value": 36.5, "unit": "ng/mL"},
      {"measurement": "Vd/F", "setting": "[3]; [12]", "value": 877, "unit": "L"},
      {"measurement": "Vd/F", "setting": "[3]; [13]", "value": 1390, "unit": "L"},
      {"measurement": "solubility", "setting": "[4]; dichloromethane (DCM)", "value": "> 500", "unit": "mg/mL"},
      {"measurement": "solubility", "setting": "[4]; ethanol", "value": "> 500", "unit": "mg/mL"},
      {"measurement": "solubility", "setting": "[4]; methanol", "value": "> 500", "unit": "mg/mL"},
      {"measurement": "maximum median HCV RNA log 10 reduction", "setting": "[5]; all cohorts dosed with >3 mg of ledipasvir", "value": "≥ 3", "unit": "log 10"},
      {"measurement": "fraction of maximal antiviral response (Emax PK/PD model)", "setting": "[5]; exposures after 30 mg dose, genotype 1a HCV infected subjects", "value": "> 95", "unit": "%"},
      {"measurement": "breakthrough (BT) rate", "setting": "[6]; 30 mg ledipasvir in combination with other therapeutic agents, 11/33", "value": 33, "unit": "%"},
      {"measurement": "breakthrough (BT) rate", "setting": "[6]; 90 mg ledipasvir in combination with other therapeutic agents, 9/74", "value": 12, "unit": "%"},
      {"measurement": "chemical stability in the ethanolic feed solution", "setting": "[7]", "value": "good chemical stability"},
      {"measurement": "increase of aqueous solubility of ledipasvir", "setting": "[8]; pH 5, 0.1% w/w copovidone", "value": 10, "unit": "fold"},
      {"measurement": "increase of aqueous solubility of ledipasvir", "setting": "[8]; pH 5, 0.1% w/w hypromellose", "value": 3, "unit": "fold"},
      {"measurement": "increase of aqueous solubility of ledipasvir", "setting": "[8]; pH 5, 0.1% w/w povidone", "value": 4, "unit": "fold"}
    ]}
  ]
}
